Measured values from ChEMBL document CHEMBL3351574, “Antitubercular activity of quinolizidinyl/pyrrolizidinylalkyliminophenazines” (Bioorg Med Chem, 2014).
Values after ≈ are worked out from the molar mass of the structure shown. Where a name gives a salt, the structure may show the parent alone.

Legend:
[1] = tested on: Mycobacterium tuberculosis; test: microbe, parasite or virus in culture; conditions: isolate 917/10, 168 h
Description: Antitubercular activity against Mycobacterium tuberculosis isolate 917/10 after 7 days by REMA resazurin microtiter assay

[2] = tested on: Mycobacterium tuberculosis; assay type: functional; conditions: H37Ra, 168 h
Mycobacterium avium = assay type: functional; conditions: 168 h
[3] = tested on: Mycobacterium tuberculosis; test: microbe, parasite or virus in culture; conditions: isolate 778/10, 168 h
Description: Antitubercular activity against Mycobacterium tuberculosis isolate 778/10 after 7 days by REMA resazurin microtiter assay

[4] = tested on: Mycobacterium tuberculosis; test: microbe, parasite or virus in culture; conditions: H37Rv, 168 h
Description: Antitubercular activity against Mycobacterium tuberculosis H37Rv after 7 days by REMA resazurin microtiter assay

[5] = tested on: Mycobacterium tuberculosis; test: microbe, parasite or virus in culture; conditions: isolate 29/10, 168 h
Description: Antitubercular activity against Mycobacterium tuberculosis isolate 29/10 after 7 days by REMA resazurin microtiter assay

[6] = tested on: Mycobacterium tuberculosis; test: Antitubercular activity against Mycobacterium tuberculosis; assay type: functional
[7] = Cytotoxicity against human HMEC1 cells assessed as reduction in cell viability after 72 hrs by MTT method; assay type: cell-based, HMEC-1
in vitro [8] = conditions: human, MT4 cells
Description: Selectivity index, ratio of CC50 for human MT4 cells to MIC for Mycobacterium tuberculosis H37Rv

in vitro [9] = conditions: monkey, Vero 76 cells
Description: Selectivity index, ratio of CC50 for african green monkey Vero 76 cells to MIC for Mycobacterium tuberculosis H37Rv

[10] = Cytotoxicity against african green monkey Vero 76 cells assessed as reduction in cell viability after 48 to 96 hrs by MTT method; assay type: cell-based; conditions: chlorocebus sabaeus
in vitro [11] = conditions: human, HMEC1 cells
Description: Selectivity index, ratio of CC50 for human HMEC1 cells to MIC for Mycobacterium tuberculosis H37Rv

[12] = Cytotoxicity against human MT4 cells assessed as reduction in cell viability after 96 hrs by MTT method; assay type: cell-based
[13] = tested on: Mycobacterium tuberculosis; test: microbe, parasite or virus in culture; conditions: isolate 439/11, 168 h
Description: Antitubercular activity against Mycobacterium tuberculosis isolate 439/11 after 7 days by REMA resazurin microtiter assay

[14] = tested on: Mycobacterium tuberculosis; test: microbe, parasite or virus in culture; conditions: isolate 756/10, 168 h
Description: Antitubercular activity against Mycobacterium tuberculosis isolate 756/10 after 7 days by REMA resazurin microtiter assay

[15] = Half life in human; assay type: ADME, organism-based; conditions: in vivo
[16] = Lipophilicity, logD of the compound at pH 7.4; assay type: physicochemical; conditions: buffer

SMILES	MIC [1]	MIC [2]	MIC (Mycobacterium avium)	MIC [3]	MIC [4]	MIC [5]	CC50 at 72 h [7]	selectivity ratio (in vitro [11])	MIC [13]	MIC [14]	further results
c1ccc(Nc2cc3nc4ccccc4n(-c4ccccc4)c-3c/c2=N/C[C@H]2CCCN3CCCC[C@H]23)cc1	1.95 µM	3.89 µM (≈ 2 µg/mL)	> 16 µg/mL	1.95 µM (≈ 1 µg/mL)	7.79 µM (≈ 4 µg/mL)	1.95 µM (≈ 1 µg/mL)	–	–	–	–	–
c1ccc(Nc2cc3nc4ccccc4n(-c4ccccc4)c-3c/c2=N/CC[C@H]2CCCN3CCCC[C@H]23)cc1	–	7.58 µM (≈ 4 µg/mL)	–	–	7.58 µM (≈ 4 µg/mL)	–	–	–	–	–	–
Clc1cccc(C(C[C@@H]2CCCN3CCCC[C@H]23)c2ccccc2)c1 (stereo partly specified)	–	–	–	–	–	–	–	–	–	–	MIC [6]: ≤ 0.1 µg/mL
FC(F)(F)c1cccc(NC[C@@H]2CCCN3CCCC[C@H]23)c1	–	–	–	–	–	–	–	–	–	–	MIC [6]: 2.5 µg/mL (≈ 8 µM)
c1ccc(Nc2cc3nc4ccccc4n(-c4ccccc4)c-3c/c2=N/CCC[C@@H]2CCCN3CCCC[C@H]23)cc1	–	7.38 µM (≈ 4 µg/mL)	–	–	7.38 µM (≈ 4 µg/mL)	–	8.3 µM	1.12	–	–	selectivity ratio (in vitro [8]): 0.22; selectivity ratio (in vitro [9]): 4.88; CC50 [10]: 36 µM; CC50 at 96 h [12]: 1.6 µM
Clc1ccc(Nc2cc3nc4ccccc4n(-c4ccc(Cl)cc4)c-3c/c2=N/CC[C@H]2CCCN3CCCC[C@H]23)cc1	0.84 µM	–	3.35 µM	0.84 µM (≈ 0.501 µg/mL)	0.84 µM (≈ 0.501 µg/mL)	0.84 µM (≈ 0.501 µg/mL)	2.3 µM	2.74	0.84 µM (≈ 0.501 µg/mL)	0.84 µM	selectivity ratio (in vitro [8]): 2.14; selectivity ratio (in vitro [9]): 11.3; CC50 [10]: 9.5 µM; CC50 at 96 h [12]: 1.8 µM
CN[C@@H]1[C@H](O[C@H]2[C@H](O[C@H]3[C@H](O)[C@@H](O)[C@H](N=C(N)N)[C@@H](O)[C@@H]3N=C(N)N)O[C@@H](C)[C@]2(O)C=O)O[C@@H](CO)[C@H](O)[C@H]1O [STREPTOMYCIN SULFATE]	0.69 µM	–	–	0.34 µM	0.69 µM	0.69 µM	–	–	0.17 µM	0.69 µM	–
CO[C@H]1/C=C/O[C@@]2(C)Oc3c(C)c(O)c4c(O)c(c(/C=N/N5CCN(C)CC5)c(O)c4c3C2=O)NC(=O)/C(C)=C\C=C\[C@H](C)[C@H](O)[C@@H](C)[C@@H](O)[C@@H](C)[C@H](OC(C)=O)[C@@H]1C [RIFAMPIN]	0.61 µM	–	–	0.15 µM (≈ 0.123 µg/mL)	0.3 µM (≈ 0.247 µg/mL)	0.15 µM (≈ 0.123 µg/mL)	–	–	0.08 µM (≈ 0.0658 µg/mL)	0.3 µM	–
Cc1c(N)ccc(NC[C@@H]2CCCN3CCCC[C@H]23)c1C	–	–	–	–	–	–	–	–	–	–	MIC [6]: ≤ 0.5 µg/mL
OC(C[C@@H]1CCCN2CCCC[C@H]12)(c1ccccc1)c1ccc(-c2ccccc2)cc1 (stereo partly specified)	–	–	–	–	–	–	–	–	–	–	MIC [6]: ≤ 1 µg/mL
c1ccc(Nc2cc3nc4ccccc4n(-c4ccccc4)c-3c/c2=N/CCC23CCCN2CCC3)cc1 [listing 1 of 2 here]	7.04 µM	3.52 µM (≈ 1.76 µg/mL)	28.1 µM	1.76 µM (≈ 0.879 µg/mL)	0.88 µM (≈ 0.44 µg/mL)	0.88 µM (≈ 0.44 µg/mL)	–	–	0.88 µM (≈ 0.44 µg/mL)	28.1 µM	–
Cc1ccc(NC[C@@H]2CCCN3CCCC[C@H]23)c2c(=O)c3ccccc3sc12	–	–	–	–	–	–	–	–	–	–	MIC [6]: 1.25 µg/mL (≈ 3.18 µM)
Cl.Clc1ccc(Nc2cc3nc4ccccc4n(-c4ccc(Cl)cc4)c-3c/c2=N/CCC23CCCN2CCC3)cc1	> 16 µg/mL	26 µM	> 16 µg/mL	12.5 µM	> 16 µM	0.78 µM	–	–	6.25 µM	> 16 µg/mL	–
c1ccc(Nc2cc3nc4ccccc4n(-c4ccccc4)c-3c/c2=N/CC[C@@H]2CCCN3CCCC[C@H]23)cc1	1.89 µM	3.79 µM (≈ 2 µg/mL)	15.2 µM	1.89 µM (≈ 0.997 µg/mL)	7.58 µM (≈ 4 µg/mL)	1.89 µM (≈ 0.997 µg/mL)	–	–	–	–	–
Cc1ccc(Nc2cc3nc4ccccc4n(-c4ccc(C)cc4)c-3c/c2=N/C[C@@H]2CCCN3CCCC[C@H]23)cc1	–	–	–	–	–	–	2.6 µM	0.4	–	–	–
Cc1ccc(Nc2cc3nc4ccccc4n(-c4ccc(C)cc4)c-3c/c2=N/C[C@@H]2CCCN3CCCC[C@H]23)cc1.Cl	26 µM	26 µM	26 µM	6.5 µM	6.5 µM	0.81 µM	–	–	3.25 µM	> 16 µg/mL	–
NNC(=O)c1ccncc1 [ISONIAZID]	1.82 µM	–	–	0.91 µM (≈ 0.125 µg/mL)	1.82 µM (≈ 0.25 µg/mL)	0.91 µM (≈ 0.125 µg/mL)	–	–	1.82 µM (≈ 0.25 µg/mL)	3.65 µM	–
CC(C)/N=c1\cc2n(-c3ccc(Cl)cc3)c3ccccc3nc-2cc1Nc1ccc(Cl)cc1 [CLOFAZIMINE]	1.06 µM	–	4.23 µM	1.06 µM (≈ 0.502 µg/mL)	1.06 µM (≈ 0.502 µg/mL)	1.06 µM (≈ 0.502 µg/mL)	18.6 µM	17.6	1.06 µM (≈ 0.502 µg/mL)	1.06 µM	half-life [15]: 70 days; selectivity ratio (in vitro [8]): 6.41; logD [16]: 6.36; selectivity ratio (in vitro [9]): > 94; CC50 [10]: > 100 µM; CC50 at 96 h [12]: 6.8 µM
Clc1ccc(Nc2cc3nc4ccccc4n(-c4ccc(Cl)cc4)c-3c/c2=N/CCC[C@H]2CCCN3CCCC[C@H]23)cc1	0.82 µM	–	3.28 µM	0.82 µM (≈ 0.501 µg/mL)	0.82 µM (≈ 0.501 µg/mL)	0.82 µM (≈ 0.501 µg/mL)	3.1 µM	3.78	0.82 µM (≈ 0.501 µg/mL)	0.82 µM	selectivity ratio (in vitro [8]): 1.83; selectivity ratio (in vitro [9]): 11; CC50 [10]: 9 µM; CC50 at 96 h [12]: 1.5 µM
CC[C@@H](CO)NCCN[C@@H](CC)CO [ETHAMBUTOL]	14.4 µM	–	–	7.21 µM (≈ 1.47 µg/mL)	14.4 µM (≈ 2.95 µg/mL)	3.61 µM (≈ 0.738 µg/mL)	–	–	1.8 µM (≈ 0.368 µg/mL)	14.4 µM	–
c1ccc(Nc2cc3nc4ccccc4n(-c4ccccc4)c-3c/c2=N/C[C@@H]2CCCN3CCCC[C@H]23)cc1	–	15.6 µM (≈ 8.01 µg/mL)	–	–	15.6 µM (≈ 8.01 µg/mL)	–	–	–	–	–	–
c1ccc(Nc2cc3nc4ccccc4n(-c4ccccc4)c-3c/c2=N/CCC[C@H]2CCCN3CCCC[C@H]23)cc1	–	0.92 µM (≈ 0.498 µg/mL)	–	–	7.38 µM (≈ 4 µg/mL)	–	5.5 µM	0.74	–	–	selectivity ratio (in vitro [8]): 0.78; selectivity ratio (in vitro [9]): 1.3; CC50 [10]: 9.6 µM; CC50 at 96 h [12]: 5.8 µM
Clc1ccc(Nc2cc3nc4ccccc4n(-c4ccc(Cl)cc4)c-3c/c2=N/C[C@@H]2CCCN3CCCC[C@H]23)cc1	0.86 µM	–	6.87 µM	0.86 µM (≈ 0.501 µg/mL)	0.86 µM (≈ 0.501 µg/mL)	0.86 µM (≈ 0.501 µg/mL)	4.7 µM	5.46	0.86 µM (≈ 0.501 µg/mL)	0.86 µM	selectivity ratio (in vitro [8]): 5.23; logD ([16]; read-out: logD): 5.54; selectivity ratio (in vitro [9]): 79.1; CC50 [10]: 68 µM; CC50 at 96 h [12]: 4.5 µM
c1ccc(Nc2cc3nc4ccccc4n(-c4ccccc4)c-3c/c2=N/CCC23CCCN2CCC3)cc1 [listing 2 of 2 here]	–	–	–	–	–	–	3.2 µM	3.64	–	–	–
C(=C1c2ccccc2-c2ccccc21)[C@@H]1CCCN2CCCC[C@H]12	–	–	–	–	–	–	–	–	–	–	MIC [6]: 0.156 µg/mL (≈ 0.495 µM)
Clc1ccc(Nc2cc3nc4ccccc4n(-c4ccc(Cl)cc4)c-3c/c2=N/CCC23CCCN2CCC3)cc1	–	–	–	–	–	–	1.5 µM	< 0.06	–	–	–
Clc1ccc(Nc2cc3nc4ccccc4n(-c4ccc(Cl)cc4)c-3c/c2=N/CC[C@@H]2CCCN3CCCC[C@H]23)cc1	0.84 µM	–	3.35 µM	0.84 µM (≈ 0.501 µg/mL)	0.84 µM (≈ 0.501 µg/mL)	0.84 µM (≈ 0.501 µg/mL)	2.5 µM	2.98	0.84 µM (≈ 0.501 µg/mL)	0.84 µM	selectivity ratio (in vitro [8]): 1.43; logD ([16]; read-out: logD): 5.52; selectivity ratio (in vitro [9]): 10.7; CC50 [10]: 9 µM; CC50 at 96 h [12]: 1.2 µM
